Data published in patent US8652840B2, “Method for obtaining female germline stem cells and uses thereof” (The General Hospital Corporation, priority 2004, dated 2014).
Read-outs that look alike come from different tables or passages of the source.

Assays:
[1] = tested on: oocyte-containing follicles; test: In-vivo HDAC suppression with Trichostatin A, counts of oocyte-containing follicles; design: species or system mice
From the text: (§1) Age-specified or timed-pregnant wild-type C57BL/6 and CD1 female mice were obtained from Charles River Laboratories, whereas AKR/J mice were obtained from Jackson Laboratories. Ovaries were fixed in 0.34N glacial acetic acid, 10% formalin, and 28% ethanol, paraffin embedded, and serially sectioned (8 μm). The sections were aligned in order on glass microscope slides, and stained with hematoxylin and picric methyl blue. The number of non-atretic or atretic primordial, primary, and preantral follicles was then determined. Primordial follicles were identified as having a compact oocyte surrounded by a single layer of flattened granulosa cells, while primary follicles were identified as having an enlarged oocyte surrounded by a single layer of cuboidal granulosa cells. Intermediate-stage follicles (compact or enlarged oocyte with a single layer of mixed flattened and cuboidal granulosa cells) were scored as primary. Preantral follicles were identified as having an enlarged oocyte surrounded by at least a partial or complete second layer of cuboidal granulosa cells, but no more than four complete layers of cuboidal granulosa cells. Only those follicles containing an oocyte with a clearly visible nucleus were scored. Follicles at the primordial, primary and preantral (immature) stages of development were scored as atretic if the oocyte was degenerating (convoluted, condensed) or fragmented. Grossly atretic follicles lacking oocyte remnants were not included in the analyses. Given that this procedure sampled one-fifth of the entire ovarian volume, the total number of follicles per ovary (healthy or atretic) was then estimated by multiplying the cumulative counts for each ovary by a correction factor of five (Zuckerman, S. (1951) Recent Prog. Horm. Res. 6: 63-108; Tilly, J. L. (2003) Reprod. Biol. Endocrinol. 1:1-11). A single trained ovarian histologist in a blinded fashion conducted all counts, and two other members of the group periodically evaluated random samples to verify accuracy and reproducibility of the data.
Animals were sacrificed 24 hours post-injection, histological preparations of ovaries were prepared, and oocyte-containing follicles were counted per standard laboratory procedures (see Example 1). Treatment with TSA caused a 53% increase in the number of total healthy immature oocyte-containing follicles per ovary when compared with ovaries of control mice given the vehicle treatment. Not only was the resting (primordial) pool of follicles increased by 42%, but also the number of early growing (primary) follicles was increased (FIG. 7c).

primordial follicles = tested on: primordial follicles; design: species or system mice; conditions: mouse, in vivo
From the text: as §1, with “Given that this procedure sampled one-fifth of the entire ovarian volume, the total number of follicles per ovary (healthy or atretic) was then estimated by multiplying the cumulative counts for each ovary by a correction factor of five (Zuckerman, S. (1951) Recent Prog. Horm. Res. 6: 63-108; Tilly, J. L. (2003) Reprod. Biol. Endocrinol. 1:1-11).” left out, “data. […]” for “data.”
To clarify whether loss of primordial follicles observed in busulfan-treated females (FIG. 5a) results from toxicity to existing oocytes, ovaries were collected from female mice at multiple points during and after the busulfan dosing regimen described above, and they were analyzed for the incidence of primordial follicle atresia. […]

ovarian function = conditions: cited from earlier work
[2] = tested on: primordial and early growing follicles (oocytes); test: Doxorubicin-synchronized oocyte death in adult female mice, germ cell dynamics; assay type: in vivo
Procedure: The existence of mammalian female germline stem cells implies an inherent capacity of the ovaries to generate, or regenerate following an insult, new stockpiles of resting (primordial) oocyte-containing follicles in a regulated fashion. To address this issue directly, adult female mice were injected with doxorubicin to synchronize oocyte death (Perez, G. I. et al, (1997) Nature Med. 3, 1228-32), and ovaries were collected at multiple intervals after drug exposure to assess germ cell dynamics.

[3] = prepubertal female mice, single i.p. injection 10 mg/kg, 24 hours post-injection

CC(/C=C/C(=O)NO)=C\[C@@H](C)C(=O)c1ccc(N(C)C)cc1 [TSA, Trichostatin A]
increase in primordial follicle numbers ([1]; female mice at 240 days of age, within 24 h (data not shown)): 89% | increase in healthy immature follicles (number) ([1]; prepubertal (13-day old) female mice, 10 mg/kg, 24 hours): more than 1,600 | increase in the number of total healthy immature oocyte-containing follicles per ovary versus vehicle [1, 3]: 53% | increase of the resting (primordial) pool of follicles [1, 3]: 42% | number of early growing (primary) follicles [1, 3]: increased

CS(=O)(=O)OCCCCOS(C)(=O)=O [busulfan]
plateau number of atretic primordial follicles (primordial follicles; female, 20 mg/kg, 5 days): 46 per ovary | reduction in the resting (primordial) oocyte pool (primordial follicles; female, 3 weeks): 95% | ratio of primordial to primary follicles, busulfan versus vehicle (primordial follicles): No significant change | POF, cases of patients (ovarian function; in vivo): 19 of 19 | hypogonadism indicative of premature ovarian failure (POF), cases of patients (ovarian function; in vivo): 20 of 21 | ovarian damage requiring hormonal replacement, cases of patients (ovarian function; in vivo): 4 of 4

O=P1(N(CCCl)CCCl)NCCCO1 (centres unmarked) [cyclophosphamide]
POF, cases of patients (ovarian function; Grigg et al. 2000: both agents ages 14-57, median=38, cyclophosphamide alone ages 13-58, median=28): 47 of 103

COc1cccc2c1C(=O)c1c(O)c3c(c(O)c1C2=O)C[C@@](O)(C(=O)CO)C[C@@H]3O[C@H]1C[C@H](N)[C@H](O)[C@H](C)O1 [doxorubicin]
primordial and total immature follicle pools ([2]; between 24 and 36 h post-treatment (data not shown)): spontaneous regeneration | primordial and early growing follicles (oocytes) ([2]; within the first 24 h after treatment (data not shown)): rapid and extensive loss
